Results on four compounds are retold here after ChEMBL document CHEMBL6120934, “Isolation and Characterization of Insecticidal Cyclotides from Viola communis” (J Nat Prod, 2025).

Bridge positions count the residues as written; N and C are the ends. Peptide text beside a SMILES is read from it.

This series is described as follows: Cytotoxicity against Spodoptera frugiperda Sf9 cells assessed as inhibition of cell viability incubated for 24 hrs by resazurin assay. Format: toxicity, cell-based. (Alamar Blue is a resazurin reagent that responds to reducing activity.)
By CC50 is commonly meant the concentration that lowers cell viability or growth by half. Consider `CC(C)C[C@@H]1NC(=O)CNC(=O)[C@H](CC(N)=O)NC(=O)[C@H](CCCNC(=N)N)NC(=O)[C@H]([C@@H](C)O)NC(=O)[C@@H]2CSSC[C@@H]3NC(=O)[C@H]([C@@H](C)O)NC(=O)CNC(=O)CNC(=O)[C@H](C(C)C)NC(=O)[C@@H]4CSSC[C@H](NC(=O)[C@H]([C@@H](C)O)NC(=O)[C@H](CSSC[C@H](NC(=O)[C@H](C(C)C)NC(=O)[C@@H]5CCCN5C1=O)C(=O)NCC(=O)N[C@@H](CCC(=O)O)C(=O)N[C@@H]([C@@H](C)O)C(=O)N4)NC(=O)CNC(=O)[C@@H]1CCCN1C(=O)[C@H]([C@@H](C)O)NC(=O)[C@H](CC(N)=O)NC3=O)C(=O)N[C@@H](CO)C(=O)N[C@@H](Cc1c[nH]c3ccccc13)C(=O)N1CCC[C@H]1C(=O)N[C@@H](C(C)C)C(=O)N2`, for which the CC50 at 24 h was 2310 nM.

Turning to `CC[C@H](C)[C@@H]1NC(=O)[C@H](C(C)C)NC(=O)[C@H](CO)NC(=O)[C@H](CO)NC(=O)[C@H](Cc2ccccc2)NC(=O)[C@@H]2CSSC[C@@H](C(=O)N[C@@H](Cc3ccc(O)cc3)C(=O)N[C@@H](CC(N)=O)C(=O)O)NC(=O)[C@H](C(C)C)NC(=O)[C@H](CCCCN)NC(=O)[C@H](CC(N)=O)NC(=O)[C@H](CCCCN)NC(=O)[C@@H]3CSSC[C@H](NC(=O)[C@H](CO)NC(=O)[C@H](CCC(=O)O)NC(=O)CNC(=O)[C@@H](NC(=O)[C@@H]4CCCN4C(=O)[C@@H](NC(=O)[C@H](C)NC(=O)[C@H](C)N)C(C)C)CSSC[C@H](NC(=O)CNC1=O)C(=O)N[C@@H](CO)C(=O)N3)C(=O)N[C@@H](C(C)C)C(=O)N[C@@H](Cc1c[nH]c3ccccc13)C(=O)N[C@@H]([C@@H](C)CC)C(=O)N1CCC[C@H]1C(=O)N2` (H-AAVPCGESCVWIPCFSSVIGCSCKNKVCYN-OH; disulfide 5-21, 9-23, 14-28), the CC50 at 24 h stood at 160 nM.

`CC(C)[C@H](NC(=O)[C@@H]1CCCN1C(=O)[C@H](C)NC(=O)CN)C(=O)N[C@H]1CSSC[C@@H]2NC(=O)CNC(=O)[C@@H]3CCCN3C(=O)[C@H]([C@@H](C)O)NC(=O)[C@H](CC(N)=O)NC(=O)[C@@H]3CSSC[C@@H](C(=O)N[C@@H](CO)C(=O)N[C@@H](CCCCN)C(=O)N[C@@H](CC(N)=O)C(=O)O)NC(=O)[C@H](C(C)C)NC(=O)[C@@H]4CCCN4C(=O)[C@H](Cc4c[nH]c5ccccc45)NC(=O)[C@@H]4CCCN4C(=O)[C@H](CC(=O)O)NC(=O)[C@H](CSSC[C@H](NC(=O)[C@H]([C@@H](C)O)NC(=O)[C@H](CCC(=O)O)NC(=O)CNC1=O)C(=O)N[C@@H](Cc1ccccc1)C(=O)NCC(=O)NCC(=O)N[C@@H]([C@@H](C)O)C(=O)N3)NC(=O)[C@H]([C@@H](C)O)NC2=O` (H-GAPVCGETCFGGTCNTPGCTCDPWPVCSKN-OH; disulfide 5-19, 9-21, 14-27): the CC50 at 24 h was 7610 nM.

As for `CC[C@H](C)[C@@H]1NC(=O)[C@@H]2CSSC[C@@H](C(=O)N[C@@H](Cc3ccc(O)cc3)C(=O)N[C@@H](CCCCN)C(=O)N[C@@H](CC(N)=O)C(=O)O)NC(=O)[C@H](C(C)C)NC(=O)[C@H](CCCCN)NC(=O)[C@H](CO)NC(=O)[C@H](CCCCN)NC(=O)[C@@H]3CSSC[C@H](NC(=O)[C@H](CO)NC(=O)[C@H](CCC(=O)O)NC(=O)CNC(=O)[C@@H](NC(=O)[C@@H]4CCCN4C(=O)[C@H](CC(C)C)NC(=O)[C@@H](NC(=O)CN)[C@@H](C)O)CSSC[C@H](NC(=O)CNC(=O)[C@H](C(C)C)NC(=O)[C@H](C(C)C)NC(=O)[C@H](CO)NC(=O)[C@H](CO)NC1=O)C(=O)N[C@@H](CO)C(=O)N3)C(=O)N[C@@H](C(C)C)C(=O)N[C@@H](Cc1c[nH]c3ccccc13)C(=O)N[C@@H]([C@@H](C)CC)C(=O)N1CCC[C@H]1C(=O)N2` (H-GTLPCGESCVWIPCISSVVGCSCKSKVCYKN-OH; disulfide 5-21, 9-23, 14-28), the half-maximal cytotoxic concentration (CC50) at 24 h came to 110 nM.
